Assay: Lateralized olfactory delivery of oxytocin via cannula into the right nostril; brain distribution by mass spectrometry imaging (MSI)
Assay type: in vivo, Sprague-Dawley male rats
Conditions: for Blue Pixel Count (intensity corresponding to oxytocin): 30 mg/kg, 25 μL into right nostril, 2 hours, pixels with B-value exceeding 180
Method: Sprague-Dawley male rats (150˜250 g) n=3 per time point×2 time points were used in this study. Animals were fasted per facility protocols (free access to water). Sedation by 50 mg/kg pentobarbital or equivalent procedure and maintenance with isoflurane. Test article administration: The animal is kept supine with the head kept at an angle to minimize movement of the olfactory plane above zero degrees (to prevent gravity drainage into the olfactory cleft). In this study Oxytocin (30 mg/kg) was delivered via the canulated olfactory delivery model which is: a 0.699 mm diameter cannula with lipophilic ointment spread on the catheter which is carefully inserted into the right nostril with a minimal angle of 20° to the target of the correct meatus. The left nostril is occluded with a non-toxic quick setting compound to prevent cross contamination. During insertion the catheter is rotated gently to advance it through the tight nasal cavity. Once the catheter reaches the ethmoid turbinate it cannot be advance gently anymore (˜15 mm). 25 μL of oxytocin is slowly instilled in the olfactory region (FIGS. 23A-B). The animals were kept sedated for 2 hours. After 2 hours, the animals were humanely euthanized by cervical dislocation. Sample collection: Olfactory bulb and brain: Rats olfactory bulb and brain were collected and snap-freeze in liquid nitrogen. The tissue was stored at −80 C until analysis. Sample Preparation: Olfactory bulb and brain samples was homogenized with ice-cold phosphate buffer saline (pH 7.4) at a ratio of 4 (buffer): 1 (tissue) (v/w). An aliquot of 20 μL homogenate was spiked into 1.5 mL tube, and 100 μL of acetonitrile containing internal standard were added for protein precipitation. The mixture was vortexed, centrifuged at 14000 rpm for 5 min. 80 μL supernatant was transferred into a 96 well plate, and 240 μL of sterile deionized water was added, the mixture was vortexed and injected for LC-MS/MS analysis.
Sample analysis: Test compound in olfactory bulb, brain, and plasma samples will be analyzed by LC/MS/MS. Calibration curve was constructed in blank olfactory bulb homogenate. Using a High-throughput RapifleX MALDI-TOF/TOF mass spectrometer the samples were analyzed utilizing non-labeled detection technologies. This is important as this technique explores the regional distribution patterns of target molecule (FIG. 24). The frozen section of brain tissue was cut into 12 μm sections. Oxytocin at 200, […], 50, 20, 10, 5, 2 ng were used as standard in blank brain slide. And substrate were sprayed on the slides. The sample of the tissue section was ionized and desorbed with the substrate under the excitation of the laser beam. The released ions were identified with mass spectrometer. The detection levels were 2.68 ng/mm^2 (FIGS. 25A-D). To visualize the lateralized drug transfer through the brain the brain was sectioned into olfactory bulb, striatum and cerebrum sections (FIG. 26) and imaged with the Mass Spectrometry Imaging (MSI) system.
The images shown in FIGS. 27A-C were analyzed to estimate the relative concentration of oxytocin on each side of the brain. Image data was converted into a standard RGB color-map, with each of the red (R), green (G), and blue (B) values taking a value between 0 and 255. Pixels with B-values exceeding 180 were counted on each side of the brain, yielding the results in Table 1.

CC[C@H](C)[C@@H]1NC(=O)[C@H](Cc2ccc(O)cc2)NC(=O)[C@@H](N)CSSC[C@@H](C(=O)N2CCC[C@H]2C(=O)N[C@@H](CC(C)C)C(=O)NCC(N)=O)NC(=O)[C@H](CC(N)=O)NC(=O)[C@H](CCC(N)=O)NC1=O [oxytocin, Oxytocin]
ratio of blue pixels, targeted over untargeted half of the brain (Cerebrum, 921/638): 1.44
Blue Pixel Count (intensity corresponding to oxytocin) (Cerebrum, Left hemisphere (untargeted)): 638
Blue Pixel Count (intensity corresponding to oxytocin) (Cerebrum, Right hemisphere (targeted)): 921
ratio of blue pixels, targeted over untargeted half of the brain (Olfactory, 962/475): 2.03
Blue Pixel Count (intensity corresponding to oxytocin) (Olfactory, Left hemisphere (untargeted)): 475
Blue Pixel Count (intensity corresponding to oxytocin) (Olfactory, Right hemisphere (targeted)): 962
ratio of blue pixels, targeted over untargeted half of the brain (Striatum, 7055/4085): 1.73
Blue Pixel Count (intensity corresponding to oxytocin) (Striatum, Left hemisphere (untargeted)): 4085
Blue Pixel Count (intensity corresponding to oxytocin) (Striatum, Right hemisphere (targeted)): 7055
excess drug concentration on the targeted side of the brain (across the three studied regions (Cerebrum, Olfactory, Striatum)): 44-103%
distribution of oxytocin by MSI (FIG. 27C) (cerebrum slice): lateralization coinciding with the targeted (right) hemisphere
distribution of oxytocin by MSI (FIG. 27A) (olfactory bulb slice): preferential right side distribution
distribution of oxytocin by MSI (FIG. 27B) (striatum slice): continued preferential right side distribution
